Drawing on ChEMBL document CHEMBL1914439, “Novel 1-alkynyl substituted 1,2-dihydroquinoline derivatives from nimesulide (and their 2-oxo analogues): a new strategy to identify inhibitors of PDE4B” (2011), this text covers inhibition for eleven molecules.

The target of assay [1] is 3',5'-cyclic-AMP phosphodiesterase 4B (Homo sapiens) (UniProt Q07343). Nature of the assay: Inhibition of recombinant His-tagged PDE4B expressed in Sf9 cells using cAMP as substrate at 30 uM preincubated for 15 mins measured after 1 hr by multilabel plate reader.
Sequence of 3',5'-cyclic-AMP phosphodiesterase 4B (Homo sapiens) (Q07343 whole entry): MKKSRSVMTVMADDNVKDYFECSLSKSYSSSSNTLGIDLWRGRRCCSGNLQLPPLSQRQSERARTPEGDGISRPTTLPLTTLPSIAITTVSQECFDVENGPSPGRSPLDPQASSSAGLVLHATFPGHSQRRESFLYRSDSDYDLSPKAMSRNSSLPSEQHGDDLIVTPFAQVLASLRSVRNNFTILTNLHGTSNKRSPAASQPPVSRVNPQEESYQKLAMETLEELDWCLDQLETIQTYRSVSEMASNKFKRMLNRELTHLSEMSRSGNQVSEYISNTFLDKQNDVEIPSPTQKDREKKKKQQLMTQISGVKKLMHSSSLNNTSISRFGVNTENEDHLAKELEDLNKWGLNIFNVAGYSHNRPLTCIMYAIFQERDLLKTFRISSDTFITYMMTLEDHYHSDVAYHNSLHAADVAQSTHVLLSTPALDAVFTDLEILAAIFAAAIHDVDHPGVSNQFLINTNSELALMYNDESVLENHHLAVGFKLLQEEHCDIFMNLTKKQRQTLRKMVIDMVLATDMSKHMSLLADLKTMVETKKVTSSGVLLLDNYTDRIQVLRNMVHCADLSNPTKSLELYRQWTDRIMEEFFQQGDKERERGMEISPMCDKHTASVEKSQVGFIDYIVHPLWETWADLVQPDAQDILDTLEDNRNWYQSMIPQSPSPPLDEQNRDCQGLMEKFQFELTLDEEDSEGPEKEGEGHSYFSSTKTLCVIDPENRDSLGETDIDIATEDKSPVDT
Assay [2] shares this target. Nature of the assay: Inhibition of recombinant His-tagged PDE4B expressed in Sf9 cells using cAMP as substrate at 1 uM preincubated for 15 mins measured after 1 hr by multilabel plate reader.
For assay [3] the target is unchanged. Nature of the assay: Inhibition of recombinant His-tagged PDE4B expressed in Sf9 cells using cAMP as substrate at 3 uM preincubated for 15 mins measured after 1 hr by multilabel plate reader.
Assay [4] has the same target. Nature of the assay: Inhibition of recombinant His-tagged PDE4B expressed in Sf9 cells using cAMP as substrate at 0.3 uM preincubated for 15 mins measured after 1 hr by multilabel plate reader.
Assay [5] shares this target. Nature of the assay: Inhibition of recombinant His-tagged PDE4B expressed in Sf9 cells using cAMP as substrate at 10 uM preincubated for 15 mins measured after 1 hr by multilabel plate reader.
Assay [6] has as its system RAW264.7. In words: Antiinflammatory activity in mouse RAW264.7 cells assessed as inhibition of LPS-induced TNFalpha challenge at 30 uM preincubated for 30 mins before LPS challenge by ELISA. The assay is classed as functional. In general terms: In an ELISA, binding on a coated surface is turned into a signal by an enzyme label.
Assay [7] has as its system RAW264.7. Nature of the assay: Antiinflammatory activity in mouse RAW264.7 cells assessed as inhibition of LPS-induced TNFalpha challenge at 10 uM preincubated for 30 mins before LPS challenge by ELISA. The assay is classed as functional.

As for `COc1ccc(C#CCn2c(=O)c(C=O)cc3ccccc32)cc1`, in assay [1], the inhibition – broadly, the share of the control response that was lost under treatment – turned out to be 22.6%.
Regarding `CC1=CC(C)(C)N(CC#Cc2ccccc2[N+](=O)[O-])c2cc(Oc3ccccc3)c(NS(C)(=O)=O)cc21`, in assay [1], the inhibition stood at 37.4%.
The same measure, in the same setting: with `Cc1ccccc1C#CCn1c(=O)c(C=O)cc2ccccc21` the figure was 45.5%; with `CC1=CC(C)(C)N(CC#Cc2cccc([N+](=O)[O-])c2)c2cc(Oc3ccccc3)c(NS(C)(=O)=O)cc21`, 41.6%; with `O=Cc1cc2ccccc2n(CC#Cc2ccc(Cl)cc2)c1=O`, 26.5%.
Consider `CC1=CC(C)(C)N(CC#Cc2ccccc2Cl)c2cc(Oc3ccccc3)c(NS(C)(=O)=O)cc21`, for which the inhibition in assay [1] came out at 40.3%.
As for `O=Cc1cc2ccccc2n(CC#Cc2ccc([N+](=O)[O-])cc2)c1=O`, the inhibition in assay [1] was 4.15%.
The same measure, in the same setting: for `O=Cc1cc2ccccc2n(CC#Cc2ccccc2Cl)c1=O` the value was 54.4%.
On the same count and under the same terms, with `O=Cc1cc2ccccc2n(CC#Cc2cccc([N+](=O)[O-])c2)c1=O` the figure was 22.6%.
The same measure, in the same setting: with `CC1=CC(C)(C)N(CC#Cc2ccc([N+](=O)[O-])cc2)c2cc(Oc3ccccc3)c(NS(C)(=O)=O)cc21` the figure was 35.1%.
In the case of `COC(=O)c1ccccc1C#CCN1c2cc(Oc3ccccc3)c(NS(C)(=O)=O)cc2C(C)=CC1(C)C`, the inhibition in assay [2] was 11%; in assay [3] it was 16%; in assay [4], 10%; in assay [5], 23%; in assay [1], 33.1%. In the assay with RAW264.7 [6], the inhibition at 30 µM turned out to be 47%. Also, the inhibition at 10 µM with RAW264.7 [7] is 35%.
